According to ChEMBL document CHEMBL1140643, “Synthesis of 4-phenoxybenzamide adenine dinucleotide as NAD analogue with inhibitory activity against enoyl-ACP reductase (InhA) of Mycobacterium tuberculosis” (Bioorg Med Chem Lett, 2007):

Columns and labels:
[1] = target: T1, Enoyl-[acyl-carrier-protein] reductase [NADH] (Mycobacterium tuberculosis) (UniProt P9WGR1); test: Inhibition of Mycobacterium tuberculosis InhA at 100 uM
T1 sequence (whole entry): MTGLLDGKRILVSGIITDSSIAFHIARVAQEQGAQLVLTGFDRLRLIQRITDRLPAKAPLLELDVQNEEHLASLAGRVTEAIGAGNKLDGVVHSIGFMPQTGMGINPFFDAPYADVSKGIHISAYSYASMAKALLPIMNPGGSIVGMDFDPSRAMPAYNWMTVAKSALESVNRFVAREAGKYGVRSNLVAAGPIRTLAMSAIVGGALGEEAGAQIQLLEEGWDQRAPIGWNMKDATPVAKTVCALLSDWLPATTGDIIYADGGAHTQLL

[2] = target: T1, Enoyl-[acyl-carrier-protein] reductase [NADH] (Mycobacterium tuberculosis); test: Inhibition of Mycobacterium tuberculosis InhA at 700 uM
[3] = target: T2, Enoyl-[acyl-carrier-protein] reductase [NADH] (Mycobacterium tuberculosis, UniProt P9WGR1); test: Inhibition of Mycobacterium tuberculosis InhA
T2 sequence (P9WGR1 whole entry): T1 sequence (whole entry)

NC(=O)c1cc([C@@H]2O[C@H](COP(=O)(O)O)[C@@H](O)[C@H]2O)ccc1Oc1ccccc1
inhibition [1]: 12%

NC(=O)c1cc([C@@H]2O[C@H](CO)[C@@H](O)[C@H]2O)ccc1Oc1ccccc1
inhibition [2]: 25%

NC(=O)c1cc([C@@H]2O[C@H](COP(=O)(O)OP(=O)(O)OC[C@H]3O[C@@H](n4cnc5c(N)ncnc54)[C@H](O)[C@@H]3O)[C@@H](O)[C@H]2O)ccc1Oc1ccccc1
IC50 [3]: 27 µM
